Measured values reported in patent US20230398130A1, “METHODS AND COMPOSITIONS FOR DIFFERENTIATING STEM CELLS” (Massachusetts Institute of Technology, priority 2020, published 2023).
Structures can show the parent of a compound that is named as a salt.

Experiments:
ISC-enriched organoids [1] = experiment: Secondary (validation) screen, 384-well 2.5-D, ENR+CD 6 days, n=8 wells, vs ENR+CD+DMSO control: ATP (CTG); type: cell-based, murine
Description: (§1) Drugs were tested at a narrowed dose range around each treatment's identified optimal dose from the primary screen (4× below, 2× above and below).
(§2) High-throughput screening.
(§3) Secondary lysozyme secretion assay screen. Confirmatory secondary screening with primary hits was performed using the above 384-well plate method. The screen was conducted with 4-plate replicates with a base media of ENR+CD. Media was supplemented with compound at day 0 and day 3 (n=8 well replicates per dose) at four different doses: two-fold above, two-fold below, and four-fold below the optimal final dose for each respective treatment. Additionally, each plate carried a large number of ENR+DMSO or ENR+CD+DMSO (vehicle) control wells (n=100 for ATP, and n=25 for LYZ.NS and LYZ.S) for robust normalization. ATP, non-stimulated lysozyme activity and CCh-stimulated lysozyme activity was again measured and the collected data was again processed in a custom R-script, per primary screen with slight modification. Values were log10 transformed, and a plate-wise FC was calculated for each well based on the median value of ENR+CD+DMSO (vehicle) control wells to normalize plate to plate variability.

ISC-enriched organoids [2] = experiment: Primary screen, 384-well 2.5-D organoid differentiation (ENR+CD, 6 days, Target Selective Inhibitor Library, vs whole-plate median): ATP (CellTiter-Glo 3D, CTG); details: primary screen
ISC-enriched organoids [3] = experiment: Secondary (validation) screen, 384-well 2.5-D, ENR+CD 6 days, n=8 wells, vs ENR+CD+DMSO control: basal lysozyme secretion (LYZ.NS); type: cell-based, murine
Description: as §1, §2, §3

ISC-enriched organoids [4] = experiment: Secondary (validation) screen, 384-well 2.5-D, ENR+CD 6 days, n=8 wells, vs ENR+CD+DMSO control: carbachol-induced lysozyme secretion (LYZ.S); type: cell-based, murine
Description: as §1, §2, §3

SMILES: COc1ccc(C2CNC(=O)C2)cc1OC1CCCC1 (stereo not drawn) [Rolipram]
- Z.CTG (ISC-enriched organoids [1]; Dose 0.50 uM): 0.477
- repSSMD.CTG (ISC-enriched organoids [1]; Dose 0.50 uM): 0.368
- Z.CTG (ISC-enriched organoids [1]; Dose 1.00 uM): 1.198
- repSSMD.CTG (ISC-enriched organoids [1]; Dose 1.00 uM): 0.832
- Z.CTG (ISC-enriched organoids [1]; Dose 4.00 uM): 0.583
- repSSMD.CTG (ISC-enriched organoids [1]; Dose 4.00 uM): 0.447
- Z.CTG (ISC-enriched organoids [1]; dose 2.00 uM): 1.819
- repSSMD.CTG (ISC-enriched organoids [1]; dose 2.00 uM): 1.420
- Z.CTG (standard z score) (ISC-enriched organoids [2]; Dose 0.08 uM): 0.850
- Z.CTG (standard z score) (ISC-enriched organoids [2]; Dose 0.40 uM): 0.370
- Z.CTG (standard z score) (ISC-enriched organoids [2]; Dose 2.00 uM): 0.945
- Z.CTG (standard z score) (ISC-enriched organoids [2]; Dose 10.00 uM): 0.714
- Z.LYZ.NS (ISC-enriched organoids [3]; Dose 0.50 uM): −0.342
- repSSMD.LYZ.NS (ISC-enriched organoids [3]; Dose 0.50 uM): −0.478
- Z.LYZ.NS (ISC-enriched organoids [3]; Dose 1.00 uM): 1.213
- repSSMD.LYZ.NS (ISC-enriched organoids [3]; Dose 1.00 uM): 1.715
- Z.LYZ.NS (ISC-enriched organoids [3]; Dose 4.00 uM): −0.407
- repSSMD.LYZ.NS (ISC-enriched organoids [3]; Dose 4.00 uM): −0.543
- Z.LYZ.NS (ISC-enriched organoids [3]; dose 2.00 uM): 0.793
- repSSMD.LYZ.NS (ISC-enriched organoids [3]; dose 2.00 uM): 0.950
- Z.LYZ.S (ISC-enriched organoids [4]; Dose 0.50 uM): −0.631
- repSSMD.LYZ.S (ISC-enriched organoids [4]; Dose 0.50 uM): −0.936
- Z.LYZ.S (ISC-enriched organoids [4]; Dose 1.00 uM): 0.801
- repSSMD.LYZ.S (ISC-enriched organoids [4]; Dose 1.00 uM): 1.107
- Z.LYZ.S (ISC-enriched organoids [4]; Dose 4.00 uM): −0.543
- repSSMD.LYZ.S (ISC-enriched organoids [4]; Dose 4.00 uM): −0.736
- Z.LYZ.S (ISC-enriched organoids [4]; dose 2.00 uM): 0.227
- repSSMD.LYZ.S (ISC-enriched organoids [4]; dose 2.00 uM): 0.169

SMILES: N#CC[C@H](C1CCCC1)n1cc(-c2ncnc3[nH]ccc23)cn1 [Ruxolitinib (INCB018424), Ruxolitinib]
- Z.CTG (ISC-enriched organoids [1]; Dose 2.50 uM): −0.128
- repSSMD.CTG (ISC-enriched organoids [1]; Dose 2.50 uM): −0.090
- Z.CTG (ISC-enriched organoids [1]; Dose 5.00 uM): −2.016
- repSSMD.CTG (ISC-enriched organoids [1]; Dose 5.00 uM): −1.168
- Z.CTG (ISC-enriched organoids [1]; Dose 20.00 uM): 1.496
- repSSMD.CTG (ISC-enriched organoids [1]; Dose 20.00 uM): 0.952
- Z.CTG (ISC-enriched organoids [1]; dose 10.00 uM): −1.380
- repSSMD.CTG (ISC-enriched organoids [1]; dose 10.00 uM): −1.030
- Z.CTG (standard z score) (ISC-enriched organoids [2]; Dose 0.08 uM): 1.093
- Z.CTG (standard z score) (ISC-enriched organoids [2]; Dose 0.40 uM): 0.867
- Z.CTG (standard z score) (ISC-enriched organoids [2]; Dose 2.00 uM): 1.062
- Z.CTG (standard z score) (ISC-enriched organoids [2]; Dose 10.00 uM): 1.140
- Z.LYZ.NS (ISC-enriched organoids [3]; Dose 2.50 uM): −1.251
- repSSMD.LYZ.NS (ISC-enriched organoids [3]; Dose 2.50 uM): −1.701
- Z.LYZ.NS (ISC-enriched organoids [3]; Dose 5.00 uM): −1.098
- repSSMD.LYZ.NS (ISC-enriched organoids [3]; Dose 5.00 uM): −1.569
- Z.LYZ.NS (ISC-enriched organoids [3]; Dose 20.00 uM): 0.522
- repSSMD.LYZ.NS (ISC-enriched organoids [3]; Dose 20.00 uM): 0.930
- Z.LYZ.NS (ISC-enriched organoids [3]; dose 10.00 uM): −0.671
- repSSMD.LYZ.NS (ISC-enriched organoids [3]; dose 10.00 uM): −1.103
- Z.LYZ.S (ISC-enriched organoids [4]; Dose 2.50 uM): −1.400
- repSSMD.LYZ.S (ISC-enriched organoids [4]; Dose 2.50 uM): −1.806
- Z.LYZ.S (ISC-enriched organoids [4]; Dose 5.00 uM): −1.667
- repSSMD.LYZ.S (ISC-enriched organoids [4]; Dose 5.00 uM): −2.281
- Z.LYZ.S (ISC-enriched organoids [4]; Dose 20.00 uM): 0.208
- repSSMD.LYZ.S (ISC-enriched organoids [4]; Dose 20.00 uM): 0.382
- Z.LYZ.S (ISC-enriched organoids [4]; dose 10.00 uM): −1.289
- repSSMD.LYZ.S (ISC-enriched organoids [4]; dose 10.00 uM): −2.212

SMILES: C[C@H](NCc1ccc(OCc2cccc(F)c2)cc1)C(N)=O [Safinamide Mesylate]
- Z.CTG (ISC-enriched organoids [1]; Dose 0.50 uM): −0.127
- repSSMD.CTG (ISC-enriched organoids [1]; Dose 0.50 uM): −0.118
- Z.CTG (ISC-enriched organoids [1]; Dose 1.00 uM): −0.743
- repSSMD.CTG (ISC-enriched organoids [1]; Dose 1.00 uM): −0.547
- Z.CTG (ISC-enriched organoids [1]; Dose 4.00 uM): −0.022
- repSSMD.CTG (ISC-enriched organoids [1]; Dose 4.00 uM): −0.013
- Z.CTG (ISC-enriched organoids [1]; dose 2.00 uM): −0.098
- repSSMD.CTG (ISC-enriched organoids [1]; dose 2.00 uM): −0.060
- Z.CTG (standard z score) (ISC-enriched organoids [2]; Dose 0.08 uM): 0.633
- Z.CTG (standard z score) (ISC-enriched organoids [2]; Dose 0.40 uM): 0.575
- Z.CTG (standard z score) (ISC-enriched organoids [2]; Dose 2.00 uM): 0.627
- Z.CTG (standard z score) (ISC-enriched organoids [2]; Dose 10.00 uM): 0.883
- Z.LYZ.NS (ISC-enriched organoids [3]; Dose 0.50 uM): −1.244
- repSSMD.LYZ.NS (ISC-enriched organoids [3]; Dose 0.50 uM): −1.484
- Z.LYZ.NS (ISC-enriched organoids [3]; Dose 1.00 uM): −1.847
- repSSMD.LYZ.NS (ISC-enriched organoids [3]; Dose 1.00 uM): −2.985
- Z.LYZ.NS (ISC-enriched organoids [3]; Dose 4.00 uM): −0.272
- repSSMD.LYZ.NS (ISC-enriched organoids [3]; Dose 4.00 uM): −0.431
- Z.LYZ.NS (ISC-enriched organoids [3]; dose 2.00 uM): −0.368
- repSSMD.LYZ.NS (ISC-enriched organoids [3]; dose 2.00 uM): −0.556
- Z.LYZ.S (ISC-enriched organoids [4]; Dose 0.50 uM): −1.637
- repSSMD.LYZ.S (ISC-enriched organoids [4]; Dose 0.50 uM): −2.413
- Z.LYZ.S (ISC-enriched organoids [4]; Dose 1.00 uM): −2.259
- repSSMD.LYZ.S (ISC-enriched organoids [4]; Dose 1.00 uM): −3.571
- Z.LYZ.S (ISC-enriched organoids [4]; Dose 4.00 uM): −0.658
- repSSMD.LYZ.S (ISC-enriched organoids [4]; Dose 4.00 uM): −0.942
- Z.LYZ.S (ISC-enriched organoids [4]; dose 2.00 uM): −0.757
- repSSMD.LYZ.S (ISC-enriched organoids [4]; dose 2.00 uM): −1.243
